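Cells were grown in 96-well plates and exposed to each compound for 48 hours at five concentrations; endpoints were interpolated linearly between bracketing concentrations, or set to the highest concentration if not reached. GI50 is the concentration that inhibits growth by half. At the TGI there is no net growth.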
What was measured:
Test in all cases: NCI tumour cell line growth inhibition, 48 h
[1] = tested on: HL-60(TB) leukemia
[2] = tested on: SK-OV-3 ovarian
[3] = tested on: EKVX NSCLC
[4] = tested on: SF-268 CNS
[5] = tested on: HCT-116 colon
[6] = tested on: K-562 leukemia
[7] = tested on: HT29 colon
[8] = tested on: CAKI-1 renal
[9] = tested on: COLO 205 colon
[10] = tested on: DU-145 prostate

| SMILES | TGI [1] [µM] | TGI [2] [µM] | TGI [3] [µM] | TGI [4] [µM] | TGI [5] [µM] | TGI [6] [µM] | TGI [7] [µM] | TGI [8] [µM] | TGI [9] [µM] | GI50 [1] [µM] | GI50 [2] [µM] | GI50 [4] [µM] | GI50 [9] [µM] | GI50 [5] [µM] | GI50 [6] [µM] | GI50 [7] [µM] | GI50 [8] [µM] | GI50 [10] [µM] | TGI [10] [µM] |
| --- | --- | --- | --- | --- | --- | --- | --- | --- | --- | --- | --- | --- | --- | --- | --- | --- | --- | --- | --- |
| C=CCNC(=S)OCCCCCCCCCC | 53.5 | 43.3 | 39.6 | 33.6 | 30.6 | 29.6 | 32.5 | 34 | – | – | – | – | – | – | – | – | – | – | – |
| O=C1c2ccccc2C2(O)Oc3cccc(O)c3C12O (stereo unspecified) | > 100 | > 100 | > 100 | > 100 | > 100 | > 100 | > 100 | > 100 | > 100 | – | – | – | – | – | – | – | – | – | – |
| Cc1ccc([Se][Se]c2ccc(C)cc2)cc1 | 19.2 | > 100 | – | 88.1 | > 100 | 28 | > 100 | > 100 | > 100 | – | – | – | – | – | – | – | – | – | – |
| COC(=O)C(=O)C(C#N)c1ccc(Cl)c(Cl)c1 (stereo unspecified) | > 100 | > 100 | > 100 | > 100 | > 100 | > 100 | > 100 | > 100 | – | – | – | – | – | – | – | – | – | – | – |
| COC(=O)c1ccccc1N=Cc1ccc(N(CCC#N)S(=O)(=O)c2ccccc2)cc1 | > 100 | > 100 | > 100 | > 100 | > 100 | > 100 | > 100 | > 100 | > 100 | – | – | – | – | – | – | – | – | – | – |
| O=C1NC(=S)NC(=O)C1=Cc1ccc2ccccc2n1 | > 100 | > 100 | > 100 | > 100 | > 100 | > 100 | > 100 | > 100 | > 100 | – | – | – | – | – | – | – | – | – | – |
| COc1cc(C(CC(OC)OC)=C(C#N)C#N)cc(OC)c1OC | 67.8 | > 100 | > 100 | > 100 | 44.1 | – | 73.4 | > 100 | 26.6 | – | – | – | – | – | – | – | – | – | – |
| CCOC(=O)CN(Cc1ccccc1)Cc1c(C(=O)c2ccccc2)c2ccccc2n1C(=O)c1ccccc1 | – | > 100 | > 100 | > 100 | > 100 | > 100 | > 100 | > 100 | > 100 | – | – | – | – | – | – | – | – | – | – |
| Oc1ccccc1C=Nc1ccccc1N=Cc1ccccc1O | 81.5 | > 100 | > 100 | > 100 | > 100 | > 100 | > 100 | – | > 100 | – | – | – | – | – | – | – | – | – | – |
| Cc1cccc(N2C(=O)C(=O)C(c3nc4ccccc4s3)C(=O)C2=O)c1C | – | > 100 | > 100 | > 100 | > 100 | > 100 | > 100 | > 100 | > 100 | – | – | – | – | – | – | – | – | – | – |
| Cc1nn(C)c(=S)n(C)c1=O | 6.47 | 42.8 | 44.9 | > 100 | 10.8 | > 100 | > 100 | – | 15.4 | – | – | – | – | – | – | – | – | – | – |
| Cc1nn(C)c(=O)c2nn(-c3ccccc3)c(C)c12 | > 100 | > 100 | > 100 | > 100 | > 100 | > 100 | > 100 | > 100 | > 100 | – | – | – | – | – | – | – | – | – | – |
| O=C1CCC2CCOc3ccc(O)c1c32 (stereo unspecified) | > 100 | > 100 | > 100 | > 100 | > 100 | > 100 | > 100 | – | > 100 | – | – | – | – | – | – | – | – | – | – |
| O=C(O/N=C1/CCCC/C1=C\c1ccccc1)c1ccc(Cl)cc1 | > 100 | > 100 | > 100 | > 100 | > 100 | > 100 | > 100 | > 100 | > 100 | – | – | – | – | – | – | – | – | – | – |
| C1C[OH+]CC[OH+]CC[OH+]CC[OH+]CC[OH+]CC[OH+]1.[Cl-].[Ta+5] | > 100 | > 100 | – | > 100 | > 100 | > 100 | > 100 | > 100 | > 100 | > 100 | > 100 | > 100 | > 100 | > 100 | > 100 | > 100 | > 100 | – | – |
| c1ccc2c(c1)ccc1c3ccccc3ccc21 | > 50 | > 50 | – | > 50 | > 50 | > 50 | > 50 | > 50 | > 50 | > 50 | > 50 | > 50 | > 50 | > 50 | > 50 | > 50 | > 50 | > 50 | > 50 |
| O=C(/C=C/c1ccc(Cl)cc1)c1ccncc1 | 67.3 | > 100 | > 100 | > 100 | > 100 | > 100 | 44.4 | > 100 | > 100 | – | – | – | – | – | – | – | – | – | – |
| CCCCCCCCCC(=O)N[C@H]1CCc2cc(OC)c(OC)c(OC)c2-c2ccc(SC)c(=O)cc21 | 0.223 | 0.0678 | 9.55 | – | 0.0586 | 29.5 | 0.0645 | > 100 | 0.0123 | – | – | – | – | – | – | – | 5.27 | – | – |
| O=c1c2cccnc2ncn1CCCN1CCOCC1 | – | > 100 | > 100 | > 100 | > 100 | > 100 | > 100 | > 100 | > 100 | – | – | – | – | – | – | – | – | – | – |
| N#Cc1nc(Nc2ccc([N+](=O)[O-])cc2)sc1N | > 29.8 | 97.5 | > 100 | > 100 | > 100 | > 100 | > 100 | 56.7 | > 100 | – | – | – | – | – | – | – | – | – | – |
| COc1ccc(-c2[nH]ncc2-c2cc(OC)c(OC)c(OC)c2)cc1 | – | 20.5 | – | > 38.1 | 12.2 | > 34.4 | 0.0326 | 25 | < 0.01 | – | < 0.01 | < 0.0127 | < 0.01 | < 0.01 | < 0.01 | < 0.01 | < 0.01 | < 0.01 | 1.64 |
| CCOC(=O)C1(C(=O)OCC)CC=C(C)CC12C(=O)Nc1ccccc12 (stereo unspecified) | > 100 | > 100 | > 100 | > 100 | > 100 | > 100 | > 100 | > 100 | > 100 | – | – | – | – | – | – | – | – | – | – |

Reference: PubChem BioAssay (NCI)
